Among the data in patent US7273861B2, “Non-nucleoside reverse transcriptase inhibitors” (Boehringer Ingelheim (Canada) Ltd., priority 2002, dated 2007) are IC50 and EC50 values, retold here.

For experiment [1], the target named is T1, HIV-1 RT WT (Human immunodeficiency virus type 1 group M subtype B, UniProt P03366).
T1 construct: mutations that occur in the reverse transcriptase segment of the pol gene
Nature of the experiment: Reverse Transcriptase (RT) assay, wild type. Format: biochemical. From the text:
(§1) Based upon testing of these compounds, as described below, it is known that they inhibit the RNA-dependent DNA polymerase activity of HIV-1 RT. Utilizing the Reverse Transcriptase (RT) Assay described below, compounds can be tested for their ability to inhibit the RNA-dependent DNA polymerase activity of HIV-1 RT. Certain specific compounds described in the Examples which appear below, were so tested. The results of this testing appear in Table 2 as IC50 (nM) and EC50 (nM).
(§2) The assays are as described in WO 01/96338A1, the contents of which are hereby incorporated herein. The results are listed in Table 2 as IC50(nM) and EC50 (nM).

Experiment [2] deals with T2, HIV-1 RT K103N/Y181C (Human immunodeficiency virus type 1 group M subtype B, UniProt P03366, K702N/Y780C).
T2 construct: mutations that occur in the reverse transcriptase segment of the pol gene
Nature of the experiment: Reverse Transcriptase (RT) assay, double mutant K103N/Y181C. Format: biochemical.
Excerpt: as §1, §2

The test system of experiment [3] is wild type HIV-1 replication. In words: Cell-based assay, wild type HIV.
Excerpt: as §2

Like-named read-outs stand apart in the source and are kept apart here.

For `CCN1c2ncc(CCOc3cccc4c3CCNC4=O)cc2-c2ncc(C)n2-c2cccnc21` [Entry 110, 9-Ethyl-3-methyl-12-{2-{(1,2,3,4-ttrahydro-1-oxo-5-isoquinolinyl)oxy}ethyl}-9H-imidazo[1,2-d]dipyrido[2,3-b:3′,2′-f][1,4]diazepine], the IC50 in experiment [1] is under 50 nM; in experiment [2], over 100 nM.

In the case of `CCN1c2ncc(CCOc3ccc(-c4ccc(CC(=O)O)cc4)cc3C)cc2-c2ncc(C)n2-c2cccnc21` [Entry 120], the results for the IC50 in experiment [1] and in experiment [2] were under 50 nM and 50 to 100 nM, respectively.

As to `CCN1c2ncc(CCOc3ccc(C(=O)O)c4c3CCCC4)cc2-c2ncc(C)n2-c2cccnc21` [Entry 121], the IC50 in experiment [1] is under 50 nM; in experiment [2], over 100 nM.

Regarding `CCN1c2ncc(CCOc3ccc4c(c3)C(C)(C)NS4(=O)=O)cc2-c2nccn2-c2c(C)ccnc21` [Entry 107], the IC50 in experiment [1] and in experiment [2] was under 50 nM in each case.

For the compound `CCN1c2ncc(CCOc3cccc4c3CN(C)C(=O)N4C)cc2-c2ncc(C)n2-c2cccnc21` [Entry 111], the results for the IC50 in experiment [1] and in experiment [2] were under 50 nM and over 100 nM, respectively.

For `CCN1c2ncc(CCOc3cccc4c3CNC(=O)N4)cc2-c2nccn2-c2c(C)ccnc21` [Entry 108], the IC50 in experiment [1] and in experiment [2] was under 50 nM in each case.

For `CCN1c2ncc(CCOc3cccc4c3COC(=O)N4)cc2-c2ncc(C)n2-c2cccnc21` [Entry 106], the IC50 was under 50 nM in experiment [1] and over 100 nM in experiment [2].

Broadly, the EC50 is the concentration giving half of the maximal effect. A lower EC50 goes with higher potency in that assay. On to `CCN1c2ncc(CCOc3cccc4c3CS(=O)(=O)N4CC(=O)O)cc2-c2nccn2-c2c(C)ccnc21` [Entry 115], for which the IC50 in experiment [1] was under 50 nM; in experiment [2], 50 to 100 nM. This compound returned an EC50 in experiment [3] (Human immunodeficiency virus 1) of over 50 nM.

As to `CCN1c2ncc(CCOc3cccc4c3CCS(=O)(=O)N4)cc2-c2ncc(C)n2-c2cccnc21` [Entry 104], the values for the IC50 in experiment [1] and in experiment [2] were under 50 nM and 50 to 100 nM, respectively.

On to `CCN1c2ncc(CCOc3ccc(C(=O)O)cc3C)cc2-c2ncc(C)n2-c2cccnc21` [Entry 118], for which the IC50 in experiment [1] and in experiment [2] was under 50 nM each time.

Regarding `CCOC(=O)N1c2cccc(OCCc3cnc4c(c3)-c3nccn3-c3c(C)ccnc3N4CC)c2CS1(=O)=O` [Entry 112], the IC50 in experiment [1] and in experiment [2] was under 50 nM each time.

As for `CCN1c2ncc(CCOc3cccc4c3CS(=O)(=O)N4CC(=O)OC(C)(C)C)cc2-c2nccn2-c2c(C)ccnc21` [Entry 114], the figures for the IC50 in experiment [1] and in experiment [2] were under 50 nM and 50 to 100 nM, respectively.

With `CCN1c2ncc(CCOc3cccc4c3CNS4(=O)=O)cc2-c2ncc(C)n2-c2cccnc21` [Entry 105], the IC50 in experiment [1] and in experiment [2] was under 50 nM in each case.

`CCN1c2ncc(CCOc3ccc(C(=O)O)c4ccccc34)cc2-c2ncc(C)n2-c2cccnc21` [Entry 122]: the IC50 in experiment [1] was under 50 nM; in experiment [2] it was over 100 nM.

`CCN1c2ncc(CCOc3cccc4c3CNC(=O)N4)cc2-c2nc(C)cn2-c2cccnc21` [Entry 101]: the IC50 in experiment [1] was under 50 nM; in experiment [2], over 100 nM.

As to `CCN1c2ncc(CCOc3cccc4c3CNC4=O)cc2-c2ncc(C)n2-c2cccnc21` [Entry 103], the IC50 in experiment [1] was under 50 nM; in experiment [2] it was over 100 nM. Also, the EC50 in experiment [3] (Human immunodeficiency virus 1) was under 10 nM.

As to `CCN1c2ncc(CCOc3cccc4c3CS(=O)(=O)N4)cc2-c2nccn2-c2c(C)ccnc21` [Entry 113], the IC50 was under 50 nM in experiment [1] and 50 to 100 nM in experiment [2].

With “4′-{(9H-imidazo[1,2-d]dipyrido[2,3-b:3′,2′-f][1,4]diazepin-12-yl)ethoxy}-3′-methyl-[1,1′-biphenyl]4-acetic acid [Entry 119]”, the IC50 is under 50 nM in experiment [1] (wild type RT, read-out: IC50 WT) and under 50 nM in experiment [2] (double mutant K103N/Y181C RT, read-out: IC50 K103N/Y181C). In experiment [3], this compound had an EC50 of under 10 nM.

As to `CCN1c2ncc(CCOc3cccc4c3CNC(=O)N4)cc2-c2nccn2-c2cccnc21` [Entry 109], the IC50 in experiment [1] and in experiment [2] was under 50 nM each time.

Take `CCN1c2ncc(CCOc3ccc(C(=O)O)cc3C)cc2-c2nccn2-c2cccnc21` [Entry 117]: the IC50 in experiment [1] is under 50 nM; in experiment [2] it was over 100 nM. In addition, in experiment [3] (Human immunodeficiency virus 1), the EC50 was under 10 nM.

For the compound `CCN1c2ncc(CCOc3cccc4c3C=CS(=O)(=O)N4C)cc2-c2ncc(C)n2-c2cccnc21` [Entry 102], the IC50 in experiment [1] and in experiment [2] was under 50 nM throughout. Besides, the EC50 in experiment [3] (Human immunodeficiency virus 1) was under 10 nM.
